Results reported in patent US7696313B2, “Prodrug compounds with isoleucine” (priority 2000, dated 2010).
Like-named read-outs stand apart in the source and are kept apart here.

Key:
[1] = Metabolism and clearance in normal mice (plasma and urine, LC MS/MS); assay type: in vivo
Description: The metabolism and clearance of Suc-Ile-Ala-Leu-Dox was studied in normal mice. The mice were administered Suc-Ile-Ala-Leu-Dox at a single intravenous bolus dose of 117 mg/kg. Plasma samples were obtained at 1 and 4 hours. Plasma samples of 100 μl were transferred to Eppendorf tubes (1.5 mL) and an internal standard of daunorubicin (20 μL at 0.5 mg/ml) was added together with acetonitrile (400 μl). The tubes were capped and briefly vortexed followed by centrifugation at 14,000 rpm. 420 μl from each tube was removed and dried in vacuo. Each sample was reconstituted in 65 μl ammonium formate containing acetonitrile (20%) prior to analysis by reverse phase liquid chromatography in combination with tandem mass spectrometry (LC MS/MS).
Urine was collected at 2 and 24 hours post administration from pairs of mice in metabolic cages. Urine samples were diluted with ammonium formate containing acetonitrile (20%) to give a target analyte concentration within the practical range of the LC MS/MS assay. 30 μl of each diluted sample was placed in an Eppendorf tube (1.5 ml) and an internal standard of daunorubicin (20 μL at 0.5 mg/ml) was added together with 50 μl of ammonium formate containing acetonitrile (20%). Each sample was then analyzed by LC MS/MS.
An Agilent HP 1100. HPLC with DAD detector and Chemstation software was coupled to a PE Sciex API 365 mass spectrometer with an electrospray ion source.
HPLC was performed on a TSK-Gel Super ODS, […], 4.6×50 mm (TosoHaas) reversed phase column equipped with a […] C18 guard disc (Higgins Analytical) and stainless steel frit (Upchurch Scientific). Chromatography was performed at room temperature. The flow rate was 0.5 ml/min. Injection volume was 50 μl. Gradient elution was performed using a mobile phase of 20 mM ammonium formate with increasing amounts of acetonitrile. The API 365 was operated at 365° C. in a multiple reaction monitoring mode, set to monitor specific analyte parent-daughter ion pairs. Integration of chromatograms was performed by MacQuan software (PE Sciex) and quantitation of each analyte obtained by comparison to previously obtained calibration curves. Daunorubicin was used as an internal standard in all cases.
Percent of administered dose—plasma volume estimated at 40% of blood volume, which was calculated at 7% of animal's body weight.
Plasma samples were obtained at 1 and 4 hours from separate mice. Urine was collected at 2 and 24 hours post administration from pairs of mice in metabolic cages. The plasma and urine samples were prepared and analyzed as described in Example 4.

[2] = as above; assay type: in vivo; remark: listed apart in the source
[3] = Initial single dose Maximum Tolerated Dose (MTD) study, 28 days; assay type: in vivo, mice; conditions: mouse, in vivo, intravenous
Description: In our initial single dose Maximum Tolerated Dose (MTD) study, groups of five normal mice were administered intravenous bolus doses of Suc-Ile-Ala-Leu-Dox. The mice were observed daily for 28 days and body weights measured twice weekly.
The mice were observed daily for 28 days and body weights measured twice weekly.
In the single dose Maximum Tolerated Dose (MTD) studies, groups of normal mice were administered intravenous bolus doses of the prodrug. The mice were observed daily for 28 days and body weights measured twice weekly. The MTD was estimated to be equal to the highest dose that produced no death in mice after 28 days.

[4] = Repeat-dose tolerance (RD-MTD) in tumor bearing mice; assay type: in vivo; conditions: mouse, in vivo, corrected results
Description: In repeat-dose studies in tumor bearing mice, groups of ten mice were dosed with various amounts of prodrug for a total of five doses at either five day or 1 week intervals.

[5] = test system: carcinoma cell trouase (MCF 7/6 cell homogenate, MCF 7/6 conditioned media, HeLa cell extract anion exchange fraction pool); assay: Cleavage assay with carcinoma cell enzyme (trouase) preparations; assay type: biochemical, human; conditions: under appropriate assay conditions
Description: A good candidate for a prodrug with improved therapeutic index is activated by cancer cells but relatively stable in whole human blood. Three different preparations of carcinoma cell trouase were used to screen various test compounds. These three preparations were as follows:
(a) MCF 7/6 (breast carcinoma) cell homogenate
(b) MCF 7/6 (breast carcinoma) conditioned media, and
(c) HeLa (cervical carcinoma) cell extract anion exchange fraction pool.
MCF 7/6 cells were grown to confluence in a serum free medium containing DMEM:F12 (1:1), 50 mg/L bovine serum albumin, ITS-X (10 mg/L insulin, 5.5 mg/L transferrin, 6.7 μg/L Na selenite, 2 mg/L ethanolamine), and Lipid Concentrate (Gibco #21900-030)100 mL of cells were harvested by centrifugation at 4° C. 10,000×g, for 20 min and decanting the supernatant. The pellet was resuspended in 2 mL phosphate buffered saline (Gibco) and centrifuged at 18,000×g for 10 min. […]
A portion of the ultracentrifugation supernatant was diluted 2-fold with a 20 mM triethanolamine-HCl pH 7.2 buffer containing 0.01% (w/v) Triton X-100 and 0.02% (w/v) sodium azide (equilibration buffer). […] Its transformation into Ala-Leu-Dox was quantified by reverse phase high performance liquid chromatography utilizing fluorescence detection of the anthracycline moiety. […]

[6] = after Suc-βAla-Ile-Ala-Leu-Dox 117 mg/kg single intravenous bolus
[7] = after Suc-Ile-Ala-Leu-Dox 117 mg/kg single intravenous bolus

COc1cccc2c1C(=O)c1c(O)c3c(c(O)c1C2=O)C[C@@](O)(C(=O)CO)C[C@@H]3O[C@H]1C[C@H](NC(=O)[C@H](CC(C)C)NC(=O)[C@H](C)N)[C@H](O)[C@H](C)O1 [Ala-Leu-Dox]
Plasma 1 hr, percent of administered dose ([1]; mouse, in vivo): 0.00 % of administered dose | Plasma 4 hr, percent of administered dose ([1]; mouse, in vivo): 0.00 % of administered dose | Urine 24 hr, percent of administered dose ([1]; mouse, in vivo): 0.00 % of administered dose

COc1cccc2c1C(=O)c1c(O)c3c(c(O)c1C2=O)C[C@@](O)(C(=O)CO)C[C@@H]3O[C@H]1C[C@H](NC(=O)[C@@H](N)CC(C)C)[C@H](O)[C@H](C)O1 [Leu-Dox]
Plasma 1 hr, percent of administered dose [2, 6]: 0.04 % of administered dose | Plasma 4 hr, percent of administered dose [2, 6]: 0.00 % of administered dose | Urine 2 hr, percent of administered dose ([2]; after Suc-βAla-Ile-Ala-Leu-Dox 117 mg/kg, collected 0-2 hours): 4.69 % of administered dose | Urine 24 hr, percent of administered dose ([2]; after Suc-βAla-Ile-Ala-Leu-Dox 117 mg/kg, collected 2-24 hours): 2.29 % of administered dose | Plasma 1 hr, percent of administered dose [1, 7]: 0.02 % of administered dose | Plasma 4 hr, percent of administered dose [1, 7]: 0.00 % of administered dose | Urine 2 hr, percent of administered dose ([1]; after Suc-Ile-Ala-Leu-Dox 117 mg/kg, collected 0-2 hours): 1.17 % of administered dose | Urine 24 hr, percent of administered dose ([1]; after Suc-Ile-Ala-Leu-Dox 117 mg/kg, collected 2-24 hours): 2.25 % of administered dose

COc1cccc2c1C(=O)c1c(O)c3c(c(O)c1C2=O)C[C@@](O)(C(=O)CO)C[C@@H]3O[C@H]1C[C@H](NC(=O)[C@H](CC(C)C)NC(=O)[C@H](C)NC(=O)[C@H](CC(C)C)NC(=O)CCC(=O)O)[C@H](O)[C@H](C)O1 [Suc-Leu-Ala-Leu-Dox, reference compound]
MTD at 28 days ([3]; 28 days, uncorrected doses, read-out: SD MTD (mg/kg), Table 7): > 117 mg/kg | MTD at 28 days ([3]; SD MTD, doxorubicin equivalent dose, Table 8, value in parentheses, corrected results): 35 mg/kg | MTD at 28 days ([3]; SD MTD, molar equivalent dose of doxorubicin, Table 7, value in parentheses, uncorrected): > 70 mg/kg | MTD at 28 days ([3]; corrected results, read-out: SD MTD (mg/kg), Table 8): 59 mg/kg | MTD at 60 days ([4]; Repeat Dose MTD, doxorubicin equivalent dose, Table 8, value in parentheses): 31 mg/kg | MTD at 60 days ([4]; Q 5D × 5 or Q 7D × 5, read-out: Repeat Dose MTD (mg/kg), Table 8): 52 mg/kg | Major Plasma Metabolite, Table 7 (mouse, in vivo): Leu-Dox | Major Plasma Metabolite, Table 8 (mouse, in vivo): Leu-Dox

COc1cccc2c1C(=O)c1c(O)c3c(c(O)c1C2=O)C[C@@](O)(C(=O)CO)C[C@@H]3O[C@H]1C[C@H](NC(=O)[C@H](CC(C)C)NC(=O)[C@H](C)NC(=O)[C@H](CC(C)C)NC(=O)CCNC(=O)CCC(=O)O)[C@H](O)[C@H](C)O1 [Suc-βAla-Leu-Ala-Leu-Dox, reference compound]
Major Plasma Metabolite, Table 7 (mice): Ala-Leu-Dox | Major Plasma Metabolite, Table 8 (mice): Ala-Leu-Dox

CC[C@H](C)[C@H](NC(=O)CCNC(=O)CCC(=O)O)C(=O)N[C@@H](C)C(=O)N[C@@H](CC(C)C)C(=O)N[C@H]1C[C@H](O[C@H]2C[C@](O)(C(C)=O)Cc3c(O)c4c(c(O)c32)C(=O)c2c(OC)cccc2C4=O)O[C@@H](C)[C@H]1O [succinyl-βAla-Ile-Ala-Leu-Daunorubicin]
cleavage activity of trouase [5]: at least twenty-fold less active

COc1cccc2c1C(=O)c1c(O)c3c(c(O)c1C2=O)C[C@@](O)(C(C)=O)C[C@@H]3O[C@H]1C[C@H](NC(=O)[C@H](CC(C)C)NC(=O)[C@H](C)NC(=O)[C@H](CC(C)C)NC(=O)CCNC(=O)CCC(=O)O)[C@H](O)[C@H](C)O1 [succinyl-βAla-Leu-Ala-Leu-Daunorubicin, reference compound]
cleavage activity of trouase [5]: readily cleaves
